Experimental data taken from patent US11124523B2, “2,6-dioxaspiro [4,5] decane derivatives and preparation method therefor and pharmaceutical applications thereof” (SHANDONG LUYE PHARMACEUTICAL CO., LTD., priority 2017, dated 2021).
Structures can show the parent of a compound that is named as a salt.

Key:
[1] = molecular target: T1, human μ-subtype opioid receptor (hMOR) (Homo sapiens (Human), UniProt P35372); test: MOR cAMP agonist activity test; assay type: cell-based; conditions: for Emax: maximum effect of enkephalin DAMGO was 100%
Experimental: Test 1: MOR cAMP Agonist Activity Test
1.1 Experimental Purpose: To test the cAMP agonist activity of the compounds of the present disclosure on the human μ-subtype opioid receptor (hMOR).
a. Compound samples were dissolved in DMSO to a storage concentration of 10 mM.
(§1) b. A series of diluted samples were formulated on a 384-well LDV plate. A total of 11 concentration points were obtained by 3.162-fold gradient dilution.
c. The series of diluted samples were transferred to an experimental plate (Corning-3824) by using an Echo machine, wherein 30 nL was transferred corresponding to each well.
The experiment was performed using a cAMP detection kit from Cisbio (Cisbio #62AM4PEJ).
a. Assay buffer and stimulation buffer (STB) required for the experiment were formulated.
Stimulation Buffer: formulated with the assay buffer, containing 5 μM NKH477 (CAS: 138605-00-2) and 200 μM IBMX (3-isobutyl-1-methylxanthine)
b. […] The number of cells in the well was 10,000 cells/well.
c. The experimental plate was placed in a 37° C. constant-temperature incubator for incubation. The incubation was performed for 40 minutes.
d. A cAMP standard concentration curve was prepared. The first concentration point was at 2848 nM, and a total of sixteen detection concentrations were obtained by 4-fold gradient dilution. There were three replicates for each concentration point.
e. The cAMP detection kit from Cisbio was provided therein with a d2-labeled cAMP reagent (d2 reagent) and an Eu-labeled cAMP antibody reagent (Crypate reagent). The above two reagents were formulated according to the kit instructions, and then added to the sample experimental plate and to the cAMP standard concentration experimental plate, respectively. It was necessary to add 5 μL of the d2 reagent and then 5 μL of the Cryptate reagent to each well.
f. After the experimental plates were left at room temperature for 60 minutes, the experimental plates were read on the Envision.

[2] = molecular target: T1, human μ-subtype opioid receptor (hMOR); test: MOR β-arrestin-2 agonist activity test; assay type: cell-based; conditions: for Emax: maximum effect of enkephalin DAMGO was 100%, about 0% = no actual agonist activity
Experimental: Test 2: β-Arrestin-2 Agonist Activity Test
2.1 Experimental Purpose: To test the β-arrestin-2 agonist activity of the compounds of the present disclosure on the human μ-subtype opioid receptor (hMOR).
a. All samples were dissolved in DMSO to a storage concentration of 10 mM.
as §1
c. The series of diluted samples were transferred to an experimental plate by using an Echo machine, wherein 60 nL of the compound was transferred corresponding to each well.
d. 60 nL of 3.33 mM DAMGO (as HPE) and 60 nL of DMSO (as ZPE) were transferred to the corresponding positions on the experimental plate by using the Echo machine.
The experiment was performed using PathHunter Detection Kit from DiscoveRX Cooperation (DiscoveRX #93-0213C3)
a. Assay buffer and PathHunter detection reagent required for the experiment were formulated.
Assay Buffer: 1×DPBS buffer
PathHunter Detection Reagent: The kit was provided therein with three constituents.
c. The experimental plate was centrifuged at 300 rpm for 30 s and incubated at room temperature for 2 hours.
d. 6 μL of the PathHunter detection reagent was added to each well of the experimental plate.
e. The experimental plate was centrifuged at 300 rpm for 30 seconds, then left at room temperature for 60 minutes, and then read on the Envision.

[3] = Metabolic stability in liver microsomes; assay type: in vitro ADME; conditions: pH 7.4; human liver microsomes 0.5 mg protein/mL; 45 mg microsome protein/g liver, 20 g liver/kg; read-out: Intrinsic Clearance CLint(liver) in Human Liver
Experimental: Test 3: Metabolic Stability in Liver Microsomes
3.1 Experimental Purpose: To test the metabolic stability of the compounds of the present disclosure in human liver microsomes
a. All samples as well as testosterone, diclofenac and propafenone acting as reference substances were dissolved in DMSO to a storage concentration of 10 mM.
b. Intermediate Solution: 5 μL of the substance to be tested or the reference substance was diluted with 45 μL of DMSO (with 450 μL of 1:1 methanol/water).
c. Working Solution: the intermediate solution was diluted with 450 μL of 100 mM potassium phosphate buffer solution (pH 7.4).
Assay Buffer: 100 mM potassium phosphate buffer (pH 7.4) • 10 mM MgCl2
Liver Microsome Solution (final concentration: 0.5 mg protein/mL):
Human liver microsomes, obtained from BD, Cat No. 452117, Lot No. 38291
b. 10 μL of the working solution containing the substance to be tested or the reference substance was added to each of plates (T0, T5, T10, T20, T30, T60, NCF60).
c. The liver microsome solution was dispensed into a 96-well plate in an amount of 680 μL/well, then 80 was added, and then T was added to each of the plates. The above incubation plate was placed at 37° C. and pre-incubated for approximately 10 minutes.
d. 10 μL of 100 mM potassium phosphate buffer was added to each well in the NCF60 plate.
e. After the pre-incubation was finished, the NADPH regeneration system working solution was dispensed into the 96-well plate in an amount of 90 μL/well, and then added to each of the plates in an amount of 10 μL/well to start the reaction.
f. The plates were incubated for an appropriate time (e.g., 5, 10, 20, 30, or 60 minutes).
g. The stop solution (refrigerated at 4° C., containing 100 ng/mL Tolbutamide and 100 ng/mL Labetalol) was added to each sample well in an amount of 300 μL/well.
h. The sample plates were shaken well for about 10 minutes and centrifuged at 4,000 rpm for 20 minutes at 4° C. During the centrifugation, 300 μL of HPLC water was added to each well, and 100 μL of the supernatant was taken for LC-MS/MS analysis.
T1/2 and Clint(mic) were calculated by the following formula: […]
Each gram of liver contained 45 mg of microsome protein, and the liver weight was 20 g/kg in a human.
Ct was the concentration at time t, t was the incubation time, C0 was the concentration at time 0, Ke was an elimination rate constant, Clint(mic) was the intrinsic clearance in liver microsomes, and Clint(liver) was the intrinsic clearance in liver. CLint(mic)=0.693/half-life/mg of microsome protein per mL(concentration of microsomes during incubation) CLint(liver)=CLint(mic)×mg of microsome protein/g of liver weight×a ratio of liver weight to body weight 3.4 Test Results

[4] = Pharmacokinetics of the compounds in rats; assay type: in vivo, rat
Experimental: 6.1 Experimental Purpose: To measure, using a LC/MS/MS method, the medicament concentrations of the compound in plasma and specific tissues at different time points after the compound was administered by a single intravenous injection (IV) to 7-9-week-old male SD rats used as test animals, to study on the pharmacokinetic behavior of the compound of the present disclosure in rats, and to evaluate the pharmacokinetic characteristics thereof. 6.2 Compound Formulation
Each of them was formulated at a concentration of 1 mg/mL and was used for IV (intravenous injection) administration.
The actual weights of the rats were weighed on the day of administration and volumes to be administered were calculated. The above formulated solutions to be administered were administered by injection into caudal veins of rats.
About 0.2 mL of whole blood samples were collected by means of jugular vein puncture at the time set in the experimental protocol, and the actual blood collection time was recorded in the experimental records. All the blood samples were added to labeled plastic centrifuge tubes to which K2-EDTA anticoagulant was added in advance. After the blood samples were collected, they were centrifuged at 3,000 g for 10 minutes at 4° C. to prepare the supernatant plasma, and the plasma was stored at −20° C. or a lower temperature for LC-MS/MS analysis.
The concentrations of the compounds in rat plasma were measured by using high-performance liquid chromatography-tandem mass spectrometry (LC-MS/MS). The retention durations of the compounds and internal standard, chromatogram acquisition, and integration of chromatograms were processed using the software Analyst (Applied Biosystems), and data statistics were processed using the software Watson LIMS (Thermo Fisher Scientific) or Analyst (Applied Biosystems). The plasma concentration was processed using a non-compartmental model of WinNonlin™ Version 6.3 (Pharsight, Mountain View, Calif.) which was a pharmacokinetic software, and the pharmacokinetic parameters were calculated using a linear logarithmic trapezoidal method.

[5] = >30000 nM = greater than the highest detection concentration, read-out: MOR β-arrestin-2 EC50

SMILES | EC50 [1] [nM] | EC50 [2, 5] [nM] | Emax [2] [%] | Emax [1] [%] | also measured
Fc1ccc([C@]2(CCNCc3scc4c3COC4)CCO[C@]3(CCOC3)C2)cc1 [Hydrochloride Salt of (+)-12] | 6.8 | > 30000 | ~0 | – | –
Fc1ccc([C@]2(CCNCc3cc(Cl)cc(Cl)c3)CCO[C@]3(CCOC3)C2)nc1 [Hydrochloride Salt of (+)-24] | 0.2 | > 30000 | ~0 | 95 | –
c1ccc([C@]2(CCNCc3cccc4c3CCC4)CCO[C@]3(CCOC3)C2)nc1 [(+)-19] | 4.5 | > 30000 | ~0 | 69.9 | –
COc1ccsc1CNCC[C@@]1(c2ccc(F)cc2)CCO[C@]2(CCOC2)C1 [(+)-3] | 3 | > 30000 | ~0 | 82 | CLint scaled [3]: 39 mL/min/kg
Cc1ccsc1CNCC[C@@]1(c2ccc(F)cc2)CCO[C@]2(CCOC2)C1 [(+)-13] | 4.1 | > 30000 | ~0 | 61.2 | –
Fc1ccc([C@]2(CCNCc3scc4c3CCC4)CCO[C@]3(CCOC3)C2)nc1 [(+)-5] | – | > 30000 | ~0 | 96.5 | Apparent Clearance Cl ([4]; male SD rats, single IV, mg/Kg: Comparative Compound 1 1.80, (+)-5 2.40, (+)-16 1.76, HCl salt of (+)-23 1.71): 58.9 mL/min/kg; Vd ([4]; male, SD, rat, plasma, iv, read-out: Apparent Distribution Volume Vd): 3.6 L/kg; AUC(0-inf) ([4]; male, SD, rat, plasma, iv, read-out: Area under the Curve AUC0-inf): 1.4 µM·h; half-life ([4]; male, SD, rat, plasma, iv, read-out: Hal-life T1/2 (converted)): 54 min; C0 ([4]; male, SD, rat, plasma, iv, read-out: Initial Concentration C0): 1810 nM; Brain/Plasm Ratio B/P ratio ([4]; rats, IV, sampling point […], mg/Kg: Comparative Compound 1 0.56, (+)-5 2.40, (+)-16 1.76, HCl salt of (+)-23 1.71): 2.19
Clc1cc(Cl)cc(CNCC[C@@]2(c3ccccn3)CCO[C@]3(CCOC3)C2)c1 [(+)-21] | 2.2 | > 30000 | ~0 | 92.3 | –
Fc1ccc([C@]2(CCNCc3cccs3)CCO[C@]3(CCOC3)C2)cc1 [(+)-14] | – | – | ~0 | – | –
c1ccc([C@]2(CCN[C@H]3CCc4ccccc43)CCO[C@]3(CCOC3)C2)nc1 [(+)-25] | – | > 30000 | ~0 | 90 | –
c1ccc([C@]2(CCN[C@H]3CCCc4ccccc43)CCO[C@]3(CCOC3)C2)nc1 [(+)-27] | 0.8 | > 30000 | ~0 | 91 | –
c1ccc([C@]2(CCNCc3cc4c(s3)CCC4)CCOC3(CCCC3)C2)nc1 [compound 2, reference compound] | – | – | 35.2 | 105 | EC50 [2]: 500 nM
Fc1ccc([C@]2(CCNCc3scc4c3CCC4)CCO[C@]3(CCOC3)C2)cc1 [Formate Salt of (+)-4] | 0.07 | > 30000 | ~0 | – | –
Fc1ccc([C@]2(CCN[C@H]3CCCc4ccccc43)CCO[C@]3(CCOC3)C2)nc1 [(+)-26] | 0.2 | > 30000 | ~0 | 96 | –
Cc1cc(C)cc(CNCC[C@@]2(c3ccccn3)CCO[C@]3(CCOC3)C2)c1 [(+)-10] | 11.6 | > 30000 | ~0 | 96.6 | –
Clc1ccc(CNCC[C@@]2(c3ccccn3)CCO[C@]3(CCOC3)C2)cc1Cl [(+)-20] | 3.1 | > 30000 | ~0 | 99.6 | –
c1ccc([C@]2(CCNCc3scc4c3COC4)CCO[C@]3(CCOC3)C2)nc1 [(+)-7] | 14.1 | > 30000 | ~0 | 90.4 | –
Fc1ccc([C@]2(CCNCc3ccc(Cl)cc3)CCO[C@]3(CCOC3)C2)nc1 [(+)-17] | 8.9 | > 30000 | ~0 | 78.5 | –
